Experimental data: ChEMBL document CHEMBL1121458, “Benzenesulfenamides as antihypertensive agents. Substituted piperidine and 1-arylpiperazine derivatives” (1980)

Assays:
Assay type in all cases: functional
[1] = tested on: Rattus norvegicus; experiment: Antihypertensive activity was measured for systolic pressure using spontaneous hypertensive rats (SHR) at 25 mg/kg after oral administration
[2] = tested on: Rattus norvegicus; experiment: Antihypertensive activity was measured for systolic pressure using spontaneous hypertensive rats (SHR) at 50 mg/kg after oral administration
[3] = tested on: Rattus norvegicus; experiment: Antihypertensive activity was measured for systolic pressure using spontaneous hypertensive rats (SHR) at 10 mg/kg after oral administration
[4] = tested on: Rattus norvegicus; experiment: Antihypertensive activity was measured for systolic pressure using spontaneous hypertensive rats (SHR) at 50 mg/kg

Row | SMILES | Change in systolic pressure [1] [mmHg] | Change in systolic pressure [2] [mmHg] | Change in systolic pressure [3] [mmHg] | Change in systolic pressure [4] [mmHg]
1 | Clc1ccc(N2CCN(Sc3ccccc3)CC2)cc1 | 23.5 | 44 |  | 
2 | O=S(=O)(c1ccccc1)N1CCN(c2ccccc2)CC1 | 33 | 26 |  | 
3 | O=S(=O)(c1ccccc1)N1CCN(c2ccccn2)CC1 |  | 5 |  | 
4 | c1ccc(SN2CCN(c3ccccn3)CC2)cc1 | 65 | 40 |  | 
5 | COc1cccc(N2CCN(Sc3ccccc3)CC2)c1 |  | 35 |  | 
6 | Cc1ccc(C(=O)C2CCN(Sc3ccccc3)CC2)cc1 |  | 7 |  | 
7 | Cc1ccccc1N1CCN(Sc2ccccc2)CC1 |  | 8 |  | 
8 | N=C(N)NCCN1CCCCCCC1 [GUANETHIDINE] |  |  | 34 | 
9 | c1ccc(COC2(c3ccccc3)CCN(Sc3ccccc3)CC2)cc1 |  |  |  | 2
10 | c1ccc(SN2CCC3(CC2)OC(c2ccccc2)c2ccccc23)cc1 (stereo not drawn) | -44 | -66 |  | 
11 | Clc1ccccc1N1CCN(Sc2ccccc2)CC1 |  | 28 |  | 
12 | c1ccc(SN2CCN(c3ccccc3)CC2)cc1 | 90 |  | 16.5 | 
13 | COc1ccc(N2CCN(Sc3ccccc3)CC2)cc1 | 7 |  |  | 
14 | c1ccc(SN2CCC(c3ccccc3)CC2)cc1 |  | -9 |  | 
15 | [O-][S+](c1ccccc1)N1CCN(c2ccccn2)CC1 (stereo not drawn) | 59 | 80 | 36 | 
16 | FC(F)(F)c1cccc(N2CCN(Sc3ccccc3)CC2)c1 |  | 6 |  | 
17 | O=C(c1ccccc1)C1CCN(Sc2ccccc2)CC1 | -14 |  |  | 
18 | [O-][S+](c1ccccc1)N1CCN(c2ccccc2)CC1 (stereo not drawn) | 42 | 83 | 22 | 
19 | Cc1cccc(N2CCN(Sc3ccccc3)CC2)c1 |  |  | 16 | 
20 | c1ccc(CN2CCN(Sc3ccccc3)CC2)cc1 | 23 | 17 |  | 
21 | Brc1ccc(OC2CCN(Sc3ccccc3)CC2)cc1 |  | -15 |  | 
22 | COc1ccccc1N1CCN(Sc2ccccc2)CC1 | 27 | 71 |  | 
